Assay results published in patent US20070082397A1, “Ex vivo progenitor and stem cell expansion for use in the treatment of disease of endodermally-derived organs” (priority 2003, published 2007).
“Also recorded” adds a separate entry of the source.

Columns and labels:
[1] = cited from earlier work
[2] = system: hepatocytes from adult mouse livers; experiment: Primary adult mouse hepatocyte culture: expansion of hepatic stem (oval) cells; assay type: cell-based; details: for oval cells in hepatocyte culture: medium supplemented with 10 μM AGN 194310 or TEPA 10 μM, FIG. 1; for growth of cultured hepatocytes and appearance of hepatic stem (oval) cells: primary culture with EGF and HGF, TEPA 10 μM or AGN 194310 10 μM, compared with control cultures without additions
Protocol: Intact livers were harvested from 3 week old VLVC female mice (Harlan Laboratories, Jerusalem, Israel), dissected and washed twice with DMEM (Beit Haemek, Israel), incubated with DMEM in the presence 0.05% collagenase for 30 minutes at 37° C., ground and passed through a 200 μm mesh sieve, yielding individual hepatocytes. Cells were washed twice and viability was ascertained with trypan blue. Cells were plated in collagen-coated, 35 mm tissue culture plates at a density of 4-×10^4 live cells/ml in F12 media (containing 15 mM Hepes, 0.1% glucose, 10 mM sodium bicarbonate, 100 units/ml penicillin-streptomycin, glutamine, 0.5 units/ml insulin, 7.5 m cg/ml hydrocortisone, and 10% fetal bovine serum). Medium was changed after 12 hours, the cells were washed twice with phosphate buffered saline (PBS) and new medium was added. Medium was changed twice a week.
Hepatocytes were also grown in the presence of Epidermal Growth Factor (EGF), Platelet-Derived Growth Factor β chain (PDGF-BB), Fibroblast growth Factors (FGF-4) and Hepatocyte Growth Factor (HGF), at 20-50 ng/ml each, for the entire culturing period according to the method of Schwartz et al. (Schwartz R E, Reyes M, Koodie L, Jiang Y, Blackstad M, Lund T, Lenvik T, Johnson S, Hu W S, Verfaillie C M. Multipotent adult progenitor cells from bone marrow differentiate into functional hepatocyte-like cells. J Clin Invest. 2002; 109 (10): 1291-302). Hepatocytes were also grown in serum free medium according to the method of Runge et al. (Runge D, Runge D M, Jager D, Lubecki K A, Beer Stolz D, Karathanasis S, Kietzmann T, Strom S C, Jungermann K, Fleig W E, Michalopoulos G K. Serum-free, long-term cultures of human hepatocytes: maintenance of cell morphology, transcription factors, and liver-specific functions. Biochem Biophys Res Commun. 2000; 269(1): 46-53).
In all of the above-mentioned hepatocytes culture conditions, cells are grown in the presence or absence of the retinoic acid antagonist AGN 194310 or the transition metal chelator tetraethylenepentamine TEPA) at 10^−5 M.
After a period of 3 weeks, cultures treated with 10^−5 M AGN 194310 or TEPA were detached with 0.25% trypsin, split and replated at a 1:2 ratio. The cells were visualized with Giemsa staining.
Murine hepatocyte cultures supplemented with EGF and HGF were evaluated as primary cultures, or following first and second passages. First passage cultures were grown for 2 weeks, split 1:2 and cells stained 8 days later. Second passage cultures were similarly grown for 2 weeks, split 1:2, and grown for an additional week, then split 1:4 and similarly stained 4 days later.
Hepatocytes and ex-vivo expanded cells were fixed in methanol directly in their cell culture plates and each procedure performed by standard procedures as outlined below.
Ex-vivo expanded cells and hepatocytes were stained with Giemsa stain, according to manufacturer's instructions (Shandon, Pittsburg, Pa.) for 4 minutes at room temperature, washed in buffer solution for 4 minutes, washed 3-4 times with rinse solution and visualized by light microscopy. Nuclei were stained with hematoxylin (Dako, Carpinteria, Calif.).

[3] = system: cord-blood-derived, bone marrow-derived, and peripheral blood derived stem and progenitor cells; details: grown without a feeder layer; cited from earlier work
[4] = system: erythroid progenitor cells, cultured mouse erythroleukemia cells, embryonal stem cells, and hepatocytes in primary hepatocyte culture; details: cited from earlier work
[5] = system: stem and progenitor hematopoietic cells; details: cited from earlier work

| persistence of treated hepatocyte cultures in culture ([2]; primary hepatocyte cultures) | SMILES | membrane permeability [1] | oval cells in hepatocyte culture [2] | growth of cultured hepatocytes and appearance of hepatic stem (oval) cells [2] | fraction of CD34+ cells and their long-term clonability [3] | proliferation and differentiation [4] | long term ex vivo stem cell proliferation and differentiation [5] |
| --- | --- | --- | --- | --- | --- | --- | --- |
| – | O=c1cc(N2CCOCC2)oc2c(-c3ccccc3)cccc12 [LY294002] | membrane permeable | – | – | – | – | – |
| – | CCc1ccc(C2=CC(C)(C)Sc3ccc(C#Cc4ccc(C(=O)O)cc4)cc32)cc1 [AGN 194310] | – | abundance of oval cells | clearly induced growth of the cultured hepatocytes, and the appearance of hepatic stem (oval) cells | – | – | – |
| at least 3 weeks | NCCNCCNCCNCCN [TEPA, tetraethylenepentamine] | – | abundance of oval cells; also recorded: increase in the proportion of oval cells | clearly induced growth of the cultured hepatocytes, and the appearance of hepatic stem (oval) cells | greatly enhanced the fraction of CD34^+ cell and their long-term clonability | Facilitation of proliferation while inhibiting differentiation | effective promotion of long term ex vivo stem cell proliferation, while inhibiting differentiation |
